Source: patent US20100215710A1, “Beta-2 Adrenergic Receptor Agonists and Antagonists and Modulation of Wound Healing” (The Regents of the University of California, priority 2005, published 2010)

Tests used:
[1] = cited from earlier work
[2] = tested on: human keratinocytes; assay: Single cell migration assay, keratinocytes (clenbuterol, OA); type: cell-based; settings: 1 μM clenbuterol, one-hour period, vs control
Protocol: All single cell migration assays were performed on cells plated on glass cover-slips inserted into 35 mm plastic dishes (MatTek Corp., Ashland, Mass.) that had been coated for 1 hour at 37° C. with 60 μg/ml collagen L Cells were plated onto the collagen-coated glass cover-slips at a density of 250 cells/mm^2 for 3-6 hours at 37° C. Cells were either untreated (control), pre-treated with 10 nM okadaic acid (OA) (10 nM) for 45 minutes prior to the addition of OA (10 nM) and clenbuterol (1 μM) (OA/Clen) or treated with either OA or clenbuterol (1 μM) alone at time 0. The dishes were inserted into metal plates, maintained at 37° C., on inverted Nikon Diaphot microscopes to monitor single cell migration. Time-lapse images of the cell migratory response were digitally captured every 10 minutes over a one-hour period by Q-Imaging Retiga-EX cameras (Burnaby, BC, Canada) controlled by a custom automation written in Improvision Open Lab software (Lexington, Mass.) on a Macintosh G4. After each cell's center of mass was tracked using the Open Lab software, migration speed and distance were calculated and imported to Excel (Microsoft Corporation, Redmond, Wash.). Significance was taken as p<0.01, using Student's t test (unpaired) to compare the means of the control and β-AR agonist-treated cell populations.
Keratinocytes were plated onto collagen-coated glass cover-slips at a concentration of 250 cells/mm^2 in KGM for 3-6 hours at 37° C. The migration of each single cell was monitored over a one-hour period, and the results were analyzed in excel as described. The speed of migration ([…]) is represented graphically in FIG. 1 Panel C, control n=57, clenbuterol n=57, OA n=60, OA-clenbuterol n=44. The data are representative of three independent experiments with at least two different keratinocyte strains. * P<0.01 between β-AR agonist and controls; #P<0.01 between OA-clenbuterol and clenbuterol alone.

[3] = tested on: human keratinocytes; assay: Scratch assay, confluent keratinocyte cultures (clenbuterol); type: cell-based; settings: 1 μM clenbuterol
Protocol: Human keratinocytes were isolated from neonatal foreskins as reported previously (Isseroff et al. (1987) Conversion of linoleic acid into arachidonic acid by cultured murine and human keratinocytes. J Lipid Res 28:1342-1349) and cultured using a modification of the method of Rheinwald and Green (Rheinwald and Green (1975) Serial cultivation of strains of human epidermal keratinocytes: the formation of keratinizing colonies from single cells. Cell 6:331-343). […]
Cells were grown to confluence on cover-slips (Fisher Scientific, Pittsburgh, Pa.) coated with 60 μg/ml Collagen I (Vitrogen 100, Collagen Corp., Palo Alto, Calif.). […] The area of the wound was determined using NIH Image 1.6 and the percent wound healing calculated by dividing the area of the wound at time X by the area of the wound at time 0 and multiplying by 100. […]
Keratinocytes were grown to confluence on collagen-coated glass cover-slips in the absence (control) or presence of 1 μM clenbuterol. […] Representative photographs of images at time 40 hours are shown in FIG. 1 Panel A. The percent wound healing was calculated and is represented graphically in FIG. 1 Panel B; control wounds are indicated by circles, clenbuterol treated by squares. […]

[4] = tested on: cultured human keratinocytes; assay: Keratinocyte migratory speed with epinephrine at post-burn levels; type: cell-based
Description: (§1) Since burn wounded patients have elevated levels of the circulating β2-AR activator epinephrine, whether blockade of β2-ARs increases keratinocyte migration and has the potential to accelerate burn wound re-epithelialization was examined.

[5] = tested on: human keratinocytes; assay: Scratch wounding of confluent keratinocytes with epinephrine; type: cell-based
Description: as §1

[6] = tested on: human skin wounds; assay: Human skin wound healing assay (explant culture, 10% serum); type: cell-based; settings: isoproterenol-treated wounds
Description: A wound healing model developed by Kratz (Kratz (1998) Modeling of wound healing processes in human skin using tissue culture. Microsc Res Tech 42:345-350) was adapted. Normal human skin was obtained from routine breast reductions or abdominoplasties under an approved exemption granted by the Internal Review Board at University of California, Davis. Under sterile conditions, excess subcutaneous fat was trimmed from 6″×3″ sections of skin prior to stretching and pinning onto sterile cork board. A 3 mm punch (Sklar Instruments, West Chester, Pa.) was used to make wounds in the epidermis and into the superficial dermis and the 3 mm discs of skin were excised using sterile scissors. 6 mm skin discs, with the 3 mm epidermal wound in the center, were excised using a 6 mm biopsy punch (SMS Inc., Columbia, Md.). […] Re-epithelialization was determined using light microscopy. […] Measuring the linear distance covered by new epithelium and dividing that by the linear distance between the original wound edges determined the percentage of re-epithelialization. […]
Wounds, 3 mm in diameter, were generated in excised human skin, cultured in the presence or absence of 10 μM isoproterenol, fixed and stained every day after wounding as described. Re-epithelialization was determined using light microscopy. […]

[7] = tested on: human skin burn wounds; assay: Ex vivo model of burn wound healing in excised human skin; type: cell-based; settings: for burn wound re-epithelialization status: 10 μm, day ten after the burn wound, control did not fully re-epithelialize
Protocol: An ex vivo model of burn wound healing was developed. A heated brass rod was applied to excised human skin, obtained and maintained basically as described above in Example 1. Burn wounds were treated with β-AR agonist (10 μm isoproterenol) or β-AR antagonist (10 μm timolol). […] Images were taken at 40× magnification.

[8] = tested on: corneal epithelial wounds; assay: Corneal epithelial wound healing in vivo in β2-AR +/+ or −/− mice
Protocol: Using male β2-AR +/+ or β2-AR −/− mice, 2 mm diameter circular corneal epithelial wounds (OD) were created using a crescent blade. The corneas were treated topically with Balanced Salt Solution (BSS), BSS with 1% isoproterenol, or BSS with 0.5% timolol, and the wound healing was monitored stereomicroscopically using fluorescein.

[9] = tested on: β2-AR; assay: Western blot of β2-AR in scratch wounded keratinocyte cultures; type: cell-based, human; settings: addition of timolol
Description: as §1

Compound: CC(C)(C)NCC(O)COc1cccc2c1CC(O)C(O)C2 (stereo not shown) [Nadolol, nadolol]
- lipid solubility [1]: low

Compound: CC(C)(C)NCC(O)c1cc(Cl)c(N)c(Cl)c1 (stereo not shown) [clenbuterol]
- reduction of keratinocyte migratory speed [2]: 45%
- time required for scratch wounds to heal [3]: significantly increases
- percent wound healing of scratch wounds ([3]; 40 hours after wounding, control wounds completely healed): 40%

Compound: CNC[C@H](O)c1ccc(O)c(O)c1 [epinephrine]
- decrease in keratinocyte migratory speed ([4]; epinephrine 10 nM): 75%
- reduction of scratch wound healing ([5]; epinephrine pretreatment): 70%

Compound: CC(C)NCC(O)c1ccc(O)c(O)c1 (stereo not shown) [isoproterenol]
- re-epithelialization of human skin wounds [6]: significant delay
- delay of re-epithelialization ([7]; 10 μm isoproterenol, day ten after the burn): 14%
- burn wound re-epithelialization status [7]: did not fully re-epithelialize
- delay of wound healing (rate, linear phase) ([8]; β2-AR +/+ mice, topical BSS with 1% isoproterenol): ~80%
- delay of wound healing ([8]; β2-AR −/− mice, topical BSS with 1% isoproterenol): but not in β2-AR −/− mice

Compound: CC(C)(C)NC[C@H](O)COc1nsnc1N1CCOCC1 [timolol]
- enhancement of re-epithelialization ([7]; 10 μm timolol, day ten after the burn): 37%
- burn wound re-epithelialization status [7]: fully re-epithelialized
- migratory speed of epinephrine-treated keratinocytes ([4]; timolol 10 μM added to epinephrine 10 nM): restored the migratory speed to control levels
- rate of healing ([8]; β2-AR +/+ mice, topical BSS with 0.5% timolol): increased the rate of healing significantly
- increase in rate of healing ([8]; β2-AR −/− mice, topical BSS with 0.5% timolol): but not in β2-AR −/− mice
- acceleration of scratch wound healing ([5]; timolol added to epinephrine): 20%
- effect on epinephrine-reduced scratch wound healing ([5]; timolol added to epinephrine): reversed the effects of epinephrine
- β2-AR downregulation one hour after the scratch [9]: delayed
